Results from paper PMC9234961 (Journal of Medicinal Chemistry, 2022).
Values joined by “and” are separate entries in the source; they are usually repeats but may differ in a detail not shown here. Equal values may be shown once. Read-outs that look alike come from different tables or passages of the source.

Assays:
[1] = target: endogenous BCL6 in OCI-Ly1 cells (Homo sapiens, UniProt P41182); test: cell-based
BCL6 in Karpas 422 cells = BCL6 in Karpas 422 cells (Homo sapiens, UniProt P41182); test: cell-based
Experimental: 3.2 Mesoscale Discovery (MSD) Degradation Assay
An MSD assay was developed for screening of compounds to determine the degradation of endogenous BCL6 in OCI-Ly1 cells. Briefly, test compounds in DMSO or DMSO alone to a total of 1332.5 nL/well were dispensed to a 96-well Nunc™ Edge 2 plate (ThermoFisher Scientific, 267544) using an Echo® 550 acoustic […]
supplemented with 10% heat-inactivated fetal bovine serum (Sera Plus, PAN Biotech, P30-3702) were […]
incubation at 37 °C + 5% CO2 the plate was centrifuged at 300 x g for 5 minutes. […]
plate washer for all wash and aspiration steps, media was removed and cells were rinsed with PBS, centrifuged as before and PBS removed. Cells were lysed in 50 µL ice-cold lysis buffer at pH 7.4 containing 50 mM Tris-HCl, 150 mM NaCl, 1 % Triton X-100 (v/v), 1 mM PMSF, 1 mM activated sodium vanadate, 1 mM EDTA, phosphatase inhibitors 2 and 3 (1:50 dilution) and protease inhibitor cocktail (1:100 dilution).
20 °C or continuing the assay. A 96-well MSD standard bind plate (MSD, L15XA-3) which was coated overnight with 1 µg/mL anti-human BCL6 goat antibody in PBS (R&D Systems, AF5046) was blocked in 3% BSA in TBS + 0.1% Tween-20 for 1 hour with shaking. Wells were emptied thoroughly before 40 µL/well of lysate was transferred from the cell plate. The MSD plate was incubated at RT for 1 hour with shaking then washed three times with TBS + 0.1 % Tween-20. Antibodies were prepared in TBS + 0.1% Tween-20 + 1% BSA. Anti-human BCL6 rabbit antibody (Cell Signalling Technology, 14895S) was added at 1:100 dilution at 25 µL/well. The plate was incubated and washed as before. MSD Sulfo-tag anti-rabbit detection antibody (MSD, R32AB-1) at 1:1000 dilution at 25 µL/well was added. The plate was incubated and washed as before and MSD Gold read buffer (MSD R92TG) at 1:1 dilution with water at 150 µL/well was added. The plate was read within 10 minutes on the MSD Quickplex reader. The % inhibition at each […]
3.3 Cell proliferation assay
Aldrich) supplemented with 10% FBS (Gibco). […]
transferred onto the cells.
Assay plates containing cells […]

ADRA2A = target: T1, ADRA2A (Homo sapiens, UniProt P08913); test: SAFETYScan GPCR cAMP, Agonist; format: cell-based
T1 construct: expressed in transfected cells
T1 sequence (P08913 1-465): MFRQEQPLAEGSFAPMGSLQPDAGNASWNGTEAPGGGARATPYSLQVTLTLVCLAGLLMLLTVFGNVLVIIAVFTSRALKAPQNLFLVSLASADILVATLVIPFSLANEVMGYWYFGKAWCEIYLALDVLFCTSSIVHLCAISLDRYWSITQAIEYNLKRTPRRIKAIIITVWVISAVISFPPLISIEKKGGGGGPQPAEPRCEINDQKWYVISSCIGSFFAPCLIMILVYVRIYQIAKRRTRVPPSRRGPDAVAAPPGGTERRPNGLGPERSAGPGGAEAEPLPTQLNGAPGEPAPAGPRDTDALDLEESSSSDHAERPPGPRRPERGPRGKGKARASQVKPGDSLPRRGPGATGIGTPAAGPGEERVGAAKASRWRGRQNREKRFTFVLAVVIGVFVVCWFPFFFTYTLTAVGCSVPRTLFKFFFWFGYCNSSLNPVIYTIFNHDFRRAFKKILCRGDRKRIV
Excerpt: (§1) Supplement jm1c02175_si_002.xlsx, sheet "SAFETYScan" | column: RC50 (uM); Max Response

HRH2 = target: T2, HRH2 (Homo sapiens, UniProt P25021); test: SAFETYScan GPCR cAMP, Agonist; format: cell-based
T2 construct: expressed in transfected cells
Excerpt: as §1

HTR1B = target: T3, HTR1B (Homo sapiens, UniProt P28222); test: SAFETYScan GPCR cAMP, Agonist; format: cell-based
T3 construct: expressed in transfected cells
Excerpt: as §1

OPRD1 = OPRD1 (Homo sapiens, UniProt P41143); test: SAFETYScan GPCR cAMP, Agonist; format: cell-based
OPRD1, sequence (P41143 whole entry, species assumed): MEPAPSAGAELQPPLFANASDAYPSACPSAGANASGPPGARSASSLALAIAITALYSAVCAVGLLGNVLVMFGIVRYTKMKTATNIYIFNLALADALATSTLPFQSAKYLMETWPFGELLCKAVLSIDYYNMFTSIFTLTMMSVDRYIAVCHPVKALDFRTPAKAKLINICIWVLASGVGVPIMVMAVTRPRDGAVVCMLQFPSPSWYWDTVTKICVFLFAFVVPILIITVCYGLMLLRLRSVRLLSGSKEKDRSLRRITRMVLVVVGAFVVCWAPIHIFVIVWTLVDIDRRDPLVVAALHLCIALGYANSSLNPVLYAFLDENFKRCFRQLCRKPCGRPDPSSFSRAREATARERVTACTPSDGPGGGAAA
Excerpt: as §1

KvLQT1/minK = KvLQT1/minK (Homo sapiens, UniProt P51787); test: SAFETYScan Ion Channel, Opener; format: cell-based
KvLQT1/minK, sequence (P51787 whole entry): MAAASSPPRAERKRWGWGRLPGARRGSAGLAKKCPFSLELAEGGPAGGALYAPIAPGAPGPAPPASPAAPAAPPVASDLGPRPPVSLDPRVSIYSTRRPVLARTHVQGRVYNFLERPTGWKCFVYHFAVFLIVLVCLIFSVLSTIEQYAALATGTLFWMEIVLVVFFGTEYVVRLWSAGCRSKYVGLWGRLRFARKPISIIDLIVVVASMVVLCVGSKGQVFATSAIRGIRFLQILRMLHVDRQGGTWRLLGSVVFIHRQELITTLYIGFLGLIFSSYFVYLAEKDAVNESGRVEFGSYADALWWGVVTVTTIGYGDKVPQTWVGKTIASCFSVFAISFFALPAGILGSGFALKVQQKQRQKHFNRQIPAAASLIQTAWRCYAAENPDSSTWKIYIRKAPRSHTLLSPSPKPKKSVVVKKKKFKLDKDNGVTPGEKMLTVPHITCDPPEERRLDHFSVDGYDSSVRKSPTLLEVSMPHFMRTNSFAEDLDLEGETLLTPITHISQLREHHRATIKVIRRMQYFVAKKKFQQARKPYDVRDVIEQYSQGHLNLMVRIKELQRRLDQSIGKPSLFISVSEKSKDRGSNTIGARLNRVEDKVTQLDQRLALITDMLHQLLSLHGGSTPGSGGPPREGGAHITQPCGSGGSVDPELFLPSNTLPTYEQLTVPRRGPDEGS
Excerpt: as §1

INSR = INSR (Homo sapiens, UniProt P06213); test: SAFETYScan Kinases Binding, Inhibitor
INSR, sequence (P06213 28-1382, species assumed): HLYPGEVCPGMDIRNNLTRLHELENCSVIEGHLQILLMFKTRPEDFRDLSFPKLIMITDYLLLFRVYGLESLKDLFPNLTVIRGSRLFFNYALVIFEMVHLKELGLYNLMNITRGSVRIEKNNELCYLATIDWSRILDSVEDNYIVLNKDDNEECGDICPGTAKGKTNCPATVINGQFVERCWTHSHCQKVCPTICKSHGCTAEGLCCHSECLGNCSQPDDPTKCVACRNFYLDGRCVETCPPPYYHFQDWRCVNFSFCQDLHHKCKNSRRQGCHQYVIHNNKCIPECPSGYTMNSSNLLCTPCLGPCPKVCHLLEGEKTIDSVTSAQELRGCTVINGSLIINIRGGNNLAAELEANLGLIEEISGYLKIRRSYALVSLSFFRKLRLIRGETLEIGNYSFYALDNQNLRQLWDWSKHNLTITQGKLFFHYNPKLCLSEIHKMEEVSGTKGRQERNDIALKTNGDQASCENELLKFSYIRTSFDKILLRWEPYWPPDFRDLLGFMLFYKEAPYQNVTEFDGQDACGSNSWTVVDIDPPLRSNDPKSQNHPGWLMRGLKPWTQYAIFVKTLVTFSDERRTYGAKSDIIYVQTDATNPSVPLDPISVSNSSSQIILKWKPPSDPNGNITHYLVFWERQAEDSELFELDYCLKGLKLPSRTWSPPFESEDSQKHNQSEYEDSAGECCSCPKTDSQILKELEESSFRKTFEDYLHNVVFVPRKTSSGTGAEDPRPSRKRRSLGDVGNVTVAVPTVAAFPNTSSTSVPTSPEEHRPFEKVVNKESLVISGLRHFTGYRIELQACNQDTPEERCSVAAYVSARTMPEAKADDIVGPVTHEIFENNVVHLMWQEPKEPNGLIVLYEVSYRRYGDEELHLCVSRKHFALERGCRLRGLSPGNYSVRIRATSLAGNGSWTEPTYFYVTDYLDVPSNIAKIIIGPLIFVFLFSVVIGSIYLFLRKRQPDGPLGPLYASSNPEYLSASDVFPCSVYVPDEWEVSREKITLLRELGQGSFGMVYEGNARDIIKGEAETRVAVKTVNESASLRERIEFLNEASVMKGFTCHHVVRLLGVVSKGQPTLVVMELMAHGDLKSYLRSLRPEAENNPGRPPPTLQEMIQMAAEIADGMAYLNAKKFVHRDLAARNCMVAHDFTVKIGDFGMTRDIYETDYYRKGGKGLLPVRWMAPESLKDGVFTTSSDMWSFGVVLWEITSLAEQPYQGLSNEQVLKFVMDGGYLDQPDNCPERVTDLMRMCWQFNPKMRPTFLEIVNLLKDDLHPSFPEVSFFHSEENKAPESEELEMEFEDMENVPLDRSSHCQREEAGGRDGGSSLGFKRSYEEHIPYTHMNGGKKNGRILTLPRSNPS
Excerpt: as §1

LCK = LCK (Homo sapiens, UniProt P06239); test: SAFETYScan Kinases Binding, Inhibitor
LCK, sequence (P06239 whole entry, species assumed): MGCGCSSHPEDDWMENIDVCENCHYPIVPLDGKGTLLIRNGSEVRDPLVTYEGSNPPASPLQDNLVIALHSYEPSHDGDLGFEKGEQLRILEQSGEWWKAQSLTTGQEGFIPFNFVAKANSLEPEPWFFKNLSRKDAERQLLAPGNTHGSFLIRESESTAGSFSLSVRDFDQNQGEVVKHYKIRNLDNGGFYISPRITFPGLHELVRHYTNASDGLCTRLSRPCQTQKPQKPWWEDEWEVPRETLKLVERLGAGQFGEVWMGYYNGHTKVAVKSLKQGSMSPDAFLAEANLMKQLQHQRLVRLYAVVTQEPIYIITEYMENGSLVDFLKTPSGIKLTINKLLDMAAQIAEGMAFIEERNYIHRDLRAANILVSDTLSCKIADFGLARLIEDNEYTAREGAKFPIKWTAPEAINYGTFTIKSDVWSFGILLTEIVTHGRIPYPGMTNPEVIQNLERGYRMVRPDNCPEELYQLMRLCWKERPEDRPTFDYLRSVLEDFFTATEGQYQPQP
Excerpt: as §1

ROCK1 = ROCK1 (Homo sapiens, UniProt Q13464); test: SAFETYScan Kinases Binding, Inhibitor
Excerpt: as §1

VEGFR2 = VEGFR2 (Homo sapiens, UniProt P35968); test: SAFETYScan Kinases Binding, Inhibitor
VEGFR2, sequence (P35968 20-1356, species assumed): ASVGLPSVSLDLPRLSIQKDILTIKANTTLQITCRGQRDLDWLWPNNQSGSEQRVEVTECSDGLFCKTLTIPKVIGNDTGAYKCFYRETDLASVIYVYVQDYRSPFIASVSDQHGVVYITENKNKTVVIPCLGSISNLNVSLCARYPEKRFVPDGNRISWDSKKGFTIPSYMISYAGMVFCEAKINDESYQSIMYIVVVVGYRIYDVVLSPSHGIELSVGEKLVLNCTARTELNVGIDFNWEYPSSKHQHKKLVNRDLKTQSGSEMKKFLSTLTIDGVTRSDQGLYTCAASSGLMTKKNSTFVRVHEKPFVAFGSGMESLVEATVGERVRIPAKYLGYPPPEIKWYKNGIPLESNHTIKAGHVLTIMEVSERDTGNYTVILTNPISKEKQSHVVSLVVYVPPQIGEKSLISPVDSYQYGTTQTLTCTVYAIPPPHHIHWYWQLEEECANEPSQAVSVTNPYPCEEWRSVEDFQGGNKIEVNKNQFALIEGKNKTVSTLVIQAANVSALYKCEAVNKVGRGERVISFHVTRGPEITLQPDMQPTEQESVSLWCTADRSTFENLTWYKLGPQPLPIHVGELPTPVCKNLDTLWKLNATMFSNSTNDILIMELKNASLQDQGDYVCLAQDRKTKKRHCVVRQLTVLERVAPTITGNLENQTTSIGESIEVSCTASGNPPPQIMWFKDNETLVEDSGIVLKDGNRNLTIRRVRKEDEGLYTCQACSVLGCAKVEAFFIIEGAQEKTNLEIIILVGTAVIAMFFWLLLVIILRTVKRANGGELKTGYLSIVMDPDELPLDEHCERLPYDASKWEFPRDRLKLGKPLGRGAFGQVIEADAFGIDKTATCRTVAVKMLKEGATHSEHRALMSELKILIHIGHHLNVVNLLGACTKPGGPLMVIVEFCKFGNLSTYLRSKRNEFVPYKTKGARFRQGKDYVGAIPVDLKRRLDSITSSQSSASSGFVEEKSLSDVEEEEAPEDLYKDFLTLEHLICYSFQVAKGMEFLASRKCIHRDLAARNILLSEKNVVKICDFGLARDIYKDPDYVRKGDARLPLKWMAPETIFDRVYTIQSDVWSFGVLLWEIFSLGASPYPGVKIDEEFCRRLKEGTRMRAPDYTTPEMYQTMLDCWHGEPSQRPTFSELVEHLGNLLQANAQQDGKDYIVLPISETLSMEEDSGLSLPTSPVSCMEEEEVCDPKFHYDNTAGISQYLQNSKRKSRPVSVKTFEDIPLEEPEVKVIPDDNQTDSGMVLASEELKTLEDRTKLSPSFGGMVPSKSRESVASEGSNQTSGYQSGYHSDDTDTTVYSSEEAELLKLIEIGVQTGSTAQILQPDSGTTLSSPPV
Excerpt: as §1

DAT = DAT (Homo sapiens, UniProt Q01959); test: SAFETYScan Transporter, Blocker; format: cell-based
DAT, sequence (Q01959 whole entry): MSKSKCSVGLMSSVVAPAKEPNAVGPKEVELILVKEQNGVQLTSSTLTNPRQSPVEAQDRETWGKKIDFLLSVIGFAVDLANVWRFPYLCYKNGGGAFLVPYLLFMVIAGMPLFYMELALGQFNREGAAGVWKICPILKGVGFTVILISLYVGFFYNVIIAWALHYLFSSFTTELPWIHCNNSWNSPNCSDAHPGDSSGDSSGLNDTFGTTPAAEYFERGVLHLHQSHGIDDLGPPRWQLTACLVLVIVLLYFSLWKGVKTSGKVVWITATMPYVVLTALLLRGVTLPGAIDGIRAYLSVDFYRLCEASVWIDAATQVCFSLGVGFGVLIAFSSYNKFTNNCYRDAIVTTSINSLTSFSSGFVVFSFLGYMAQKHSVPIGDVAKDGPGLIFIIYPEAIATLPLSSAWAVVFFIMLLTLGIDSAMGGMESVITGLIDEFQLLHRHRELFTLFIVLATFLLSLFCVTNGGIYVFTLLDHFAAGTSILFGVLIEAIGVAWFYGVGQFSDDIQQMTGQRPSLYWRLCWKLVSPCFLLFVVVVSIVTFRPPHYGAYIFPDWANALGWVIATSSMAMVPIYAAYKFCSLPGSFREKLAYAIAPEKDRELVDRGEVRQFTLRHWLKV
Excerpt: as §1

NET = NET (Homo sapiens, UniProt P23975); test: SAFETYScan Transporter, Blocker; format: cell-based
Excerpt: as §1

SERT = SERT (Homo sapiens, UniProt P31645); test: SAFETYScan Transporter, Blocker; format: cell-based
Excerpt: as §1

human BCL6 BTB domain = human BCL6 BTB domain (Homo sapiens, UniProt P41182)
Experimental: Assays were performed in a 384-well black Proxiplate (Perkin Elmer) containing 1 nM Trx-6xHis-BCL6 (in
anti-6xHis-Terbium cryptate (CisBio Bioassays, France), in assay buffer (25 mM Hepes pH8, 100 mM NaCl,
0.05% Tween20, 0.5 mM TCEP, 0.05% bovine serum albumin). Test compounds in DMSO or DMSO alone
were added to the wells using an ECHO550 acoustic dispenser (Labcyte Inc) to give the appropriate test
concentration in 0.7% v/v DMSO final. After 2 hours incubation at room temperature the plate was read
The % inhibition at each concentration was calculated by normalising FRET ratio to the
appropriate high (DMSO with all reagents) and low (DMSO without BCL6) controls. IC50 values were
determined using GraphPad Prism 6.0 or Dotmatics (Bishops Stortford, UK) software by fitting the
normalised data to a sigmoidal four-parameter logistic fit equation.

[2] = target: BCL6 in OCI-Ly1 DLBCL xenograft (Homo sapiens, UniProt P41182); conditions: single dose 50 mg/kg po
Experimental: weighed and dosing volumes adjusted accordingly.
7.3.2 Preparation of OCI-Ly1 xenograft model in mouse
Twenty days post injection 24 tumour-bearing mice (between 0.4 and 0.6 cm3) were selected for the study
Mice were then grouped n=3 for the following time points: 12, 16 & 24 hours
Compounds and vehicle were administered po (formulated as described in Supplementary experimental
single treatment of vehicle.
Blood (~1 mL) was taken from anaesthetized mice, via intracardiac puncture, using a 27 gauge needle and
a syringe pre-coated with heparin (200 Units/mL), The heparinized blood was microcentrifuged for 2
minutes and ~200 uL of plasma was aspirated to a labelled tube, frozen on dry-ice and dedicated to
pharmacokinetic analysis (PK). Each tumour was excised, divided into two halves, weighed and then snap
frozen in liquid nitrogen, dedicating one half to PK analysis and the other half to pharmacodynamic analysis (PD). All frozen material was permanently stored in a -80°C freezer.
7.3.6 Tumour lysis and Wes method
Tumours were lysed in lysis buffer (50 mM Tris-HCl, pH 7.4, 150 mM NaCl, 1% Triton X-100 (v/v), 1 mM PMSF, 1 mM activated sodium vanandate, 1 mM EDTA, phosphatase inhibitors 2 and 3 (1:50m dilution) and protease cocktail (1:100 dilution)) using reinforced homogenizing tubes containing metal beads using a Precellys 24 with cryolys cooling at 6000 rpm, 2 × 20 s (Stretton Scientific). Lysates were incubated on ice for 15 minutes, spun at 14000 rpm at 4 °C for 10 minutes and supernatants collected and aliquoted.
Samples were stored at -80 °C until use. Protein concentration was determined by diluting 1:10 with lysis buffer and measuring on Direct Detect® spectrometer according to manufacturer’s instructions.
according to manufacturer’s instructions (ProteinSimple) with multiplexing BCL6 (CST14895 at 1:150
Data was analysed using Compass for SW software. BCL6 data was normalised to GAPDH and transferred to GraphPad Prism 7.

`C[C@H]1C[C@@H](O)CN(c2ncc(Cl)c(Nc3ccc4c(c3)c3c(c(=O)n4C)OCC(F)(F)[C@H](C4CC4)N3)n2)C1` [12a CCT373566, (S)-10-((5-Chloro-2-((3R,5S)-3-hydroxy-5-methylpiperidin-1-yl)pyrimidin-4-yl)amino)-2-cyclopropyl-3,3-difluoro-7-methyl-1,2,3,4-tetrahydro-[1,4]oxazepino[2,3-c]quinolin-6(7H)-one] was tested, and the Dmax ([1]; OCI-Ly1, read-out: MSD degrader assay [OCI-LY1] Dmax individual replicates, single replicate values) was 89.8%, the Dmax ([1]; OCI-Ly1, read-out: MSD degrader assay [OCI-Ly1] Dmax, mean maximal degradation of BCL6, OCI-Ly1 cells, 2 h) was 91.5% and the “degradation of BCL6 (in words)” value ([1]; OCI-Ly1 MSD assay) was “potently degrading isomer”. The “MSD degrader assay [OCI-Ly1] DC50” value ([1]; geometric mean, OCI-Ly1 cells, 2 h incubation) was “sub-nanomolar”, the “MSD degrader assay [OCI-Ly1] Dmax” value ([1]; mean maximal degradation of BCL6, OCI-Ly1 cells, 2 h) was greater than 90% and the “MSD degrader assay [OCI-LY1] pDC50 mean” value ([1]; mean of replicates) was 9.1465. For the same molecule, the DC50 ([1]; read-out: Calculated free DC50 [OCI-Ly1], DC50 corrected with fu,media) was 88 pM, the DC50 ([1]; read-out: MSD degrader assay [OCI-LY1] DC50 individual replicates, single replicate values) was 1 nM and 0.9 nM (4×) and 1.5 nM and 0.5 nM (2×) and 0.8 nM and 1.2 nM and 0.3 nM and 0.6 nM (3×) and 0.4 nM (2×) and 1.3 nM and the DC50 ([1]; read-out: MSD degrader assay [OCI-Ly1] DC50, geometric mean, OCI-Ly1 cells, 2 h incubation) was 700 pM. For the same molecule, the “MSD degrader assay [OCI-LY1] Dmax individual replicates” value ([1]; single replicate values) was 90.3% and 91.7% and 95.3% (2×) and 94.5% and 93.1% and 94.4% and 94.1% and 92.7% and 96.2% and 84.1% and 84.0% and 89.6% and 88.7% and 89.5% and 92.4%, the Dmax (BCL6 in Karpas 422 cells; KARPAS-422, read-out: MSD degrader assay [Karpas 422] Dmax) was 85% and the DC50 (BCL6 in Karpas 422 cells; read-out: MSD degrader assay [Karpas 422] DC50, Karpas 422 cells) was 0.001 µM. For the same molecule, the Emax (ADRA2A; read-out: Max Response) was 33.6%, the EC50 (ADRA2A; read-out: RC50 (EC50)) was greater than 10 µM and the Emax (HRH2; read-out: Max Response) was 0%. The EC50 (HRH2; read-out: RC50 (EC50)) was greater than 10 µM, the Emax (HTR1B; read-out: Max Response) was 21.5% and the EC50 (HTR1B; read-out: RC50 (EC50)) was greater than 10 µM. For the same molecule, the Emax (OPRD1; read-out: Max Response) was 60.3%, the EC50 (OPRD1; read-out: RC50 (EC50)) was 4.95 µM and the Emax (KvLQT1/minK; read-out: Max Response) was 3.79%. The EC50 (KvLQT1/minK; read-out: RC50 (EC50)) was greater than 10 µM, the Emax (INSR; read-out: Max Response) was 0% and the IC50 (INSR; read-out: RC50 (IC50)) was greater than 10 µM. It also gave an Emax (LCK; read-out: Max Response) of 1.52%, an IC50 (LCK; read-out: RC50 (IC50)) greater than 10 µM and an Emax (ROCK1; read-out: Max Response) of 14.9%. For the same molecule, the IC50 (ROCK1; read-out: RC50 (IC50)) was greater than 10 µM, the Emax (VEGFR2; read-out: Max Response) was 15.8% and the IC50 (VEGFR2; read-out: RC50 (IC50)) was greater than 10 µM. It also gave an Emax (DAT; read-out: Max Response) of 0%, an IC50 (DAT; read-out: RC50 (IC50)) greater than 10 µM and an Emax (NET; read-out: Max Response) of 8.36%. For the same molecule, the IC50 (NET; read-out: RC50 (IC50)) was greater than 10 µM, the Emax (SERT; read-out: Max Response) was 0% and the IC50 (SERT; read-out: RC50 (IC50)) was greater than 10 µM. For the same molecule, the “BCL6 TR-FRET pIC50 mean” value (human BCL6 BTB domain; mean of replicates) was 8.6638, the IC50 (human BCL6 BTB domain; read-out: BCL6 TR-FRET IC50 individual replicates, single replicate values) was 2.3 nM (3×) and 2.1 nM (3×) and the adverse events ([2]; OCI-Ly1 xenograft SCID mice) was “No visible adverse events were observed”. The “tumor concentrations versus plasma concentrations” value ([2]; 12, 16, 24 h) was “lower than plasma concentrations at all time points” and the “BCL6 levels in tumor” value ([2]; 12, 16 and 24 h after dosing) was “significantly decreased at all time points”.
